According to US4689344A, “Long-chain α,ω-dicarboxylic acids and derivatives thereof and pharmaceutical compositions containing them” (Epis S.A., priority 1981, dated 1987):
Where “and” joins values, the source holds several entries; their conditions need not be identical. Equal entries are not always repeated.

How the values were obtained:
LD50 in rats (p.o.) = conditions: rat, in vivo, po
serum lipids [1] = assay: Serum triglyceride and cholesterol levels in Psamomys Obesus; format: in vivo; conditions: Table VI, young animals, 0.1% in diet, 140 days, n = 7
Method: (§1) Psamomys Obesus were fed "Amrod 935" Purina Chow diet supplemented with 0.1% of the active compound of Example 4, ad libitum, for periods of 80 or 140 days. The biological effects of the active compound in vivo were evaluated as reported in the following experiments.
Groups of young and old Psamomys were fed the above described diet for 140 and 80 days, respectively, whereafter the serum triglyceride and cholesterol levels were determined.

[2] = tested on: oxidation of glucose, palmitate or acetate to CO2; assay: Oxidation of glucose, palmitate or acetate to CO2 in vivo; set-up: species or system rat; conditions: rats, additional experiments
liver triglyceride = assay: Liver triglyceride content of rats fed carbohydrate-rich diet; format: in vivo, rat; conditions: for Reduction in liver triglyceride content (FIG. 4): carbohydrate-rich diet, compared to control group=100%
serum insulin = assay: Serum insulin levels in diabetic Psamomys Obesus; format: in vivo; conditions: non-treated diabetic animals 40-200 uu/ml
serum lipids [3] = assay: Serum lipids in rats fed high carbohydrate, fat-free diet; format: in vivo, rat
Method: (§2) Rats that have previously been starved for 48 hours, were meal-fed or fed ad libitum a high carbohydrate, fat-free diet for 3-5 days, the diet being supplemented with the active compounds of formula (I) at dosages of 25-250 mg per Kg body weight per day. The biological effects in-vivo were evaluated by following the rate of incorporation of injected radioactive precursors (mainly ^3 H2 O) into liver and adipose tissue lipids and comparing the results observed with those obtained from groups of non-treated rats ("control groups"). Dose-response curves were plotted.
The hypolipidemic effect was followed by measuring the triglycerides and cholesterol content in serum of treated rats as compared to non-treated rats.
Rats starved for 48 hours were fed a high carbohydrate, fat-free diet ad libitum for 3 or 5 days, supplemented with the active compound of Example 4 at the proportions shown in the following Table III. The serum lipids were determined in the treated rats and compared to a non-treated control group.
(§3) Rats starved for 48 hours were fed a high carbohydrate, fat-free diet supplemented with 0.25% of the active compound of Example 5 for 3 days ad libitum.

[4] = tested on: GT of non-diabetic Psamomys; assay: Effect on GT of non-diabetic Psamomys; format: in vivo
glucose tolerance = assay: Glucose tolerance test (GTT) in diabetic Psamomys Obesus; format: in vivo; set-up: Sum of glucose values at 0, 1, 2, 3h, Treatment / Sum of glucose values at 0, 1, 2, 3h, Elimination of Treatment: unit not given here; conditions: for Sum of glucose values at 0, 1, 2, 3h, Treatment: 0.1% in diet 30-70 days; for Sum of glucose values at 0, 1, 2, 3h, Elimination of Treatment: after return to normal diet
Method: as §1
Six Psamomys Obesus fed Purina Chow diet ad libitum were selected for their diabetic trait by following their glucose tolerance test (GTT). The selected animals were then treated by feeding the same Purina diet supplemented with 0.1% of the active compound of Example 4 for periods varying between 30-70 days. The GTT was followed periodically throughout this period, as well as for 50 more days after the drug-supplemented diet had been replaced with the normal diet. A diagram of the GTT curves obtained with one representative animal is shown in FIG. 6 of the attached drawings. The GTT values for all six animals are shown in the following Table VIII as the sum of the glucose values observed at 0^h, 1^h, 2^h, 3^h.

[5] = tested on: diabetes induced by steptozocin; assay: Effect on diabetes induced by steptozocin in rats; format: in vivo, rat
serum lipoprotein = assay: Serum lipoprotein profile; format: in vivo, rat
Method: as §3

[6] = Body weight of Psamomys Obesus; format: in vivo; conditions: Table VII; for Weight gain (gr) average: 0.1% in diet
Method: as §1
The above experiment was repeated with groups of young and old Psamomys and the body weight determined.

[7] = tested on: liver total lipid, triglyceride and cholesterol; assay: 3H2O incorporation into liver lipids in vivo (total lipid, triglyceride, cholesterol); set-up: species or system rat; conditions: n = 5
Method: ^3 H2 O incorporation into liver lipids in vico (in μmole/gr liver) was tested in rats fed for 3 days a single daily meal of a high carbohydrate diet containing 0.25% of the active compound of Example 4.
The procedure of Experiment I(b) was repeated for 5 days.
as §2

[8] = tested on: neutral fat in liver and adipose tissue and liver cholesterol; assay: 3H2O incorporation into neutral fat in liver and adipose tissue and into liver cholesterol in vivo; set-up: species or system rat
Method: as §2
Incorporation of ^3 H2 O into neutral fat in liver and adipose tissue and into liver cholesterol in vivo.
^3 H2 O incorporation into liver and adipose tissue lipids in vivo was tested in rats fed a high carbohydrate diet ad libitum for three days, supplemented with varying proportions (in percent of the diet) of the active compounds of Examples 4, 5 and 9. ^3 H2 O was then administered to the animals and the rates of incorporation of tritium (in μmole/gr/60 min) into various lipid fractions in liver and adipose tissue were determined and compared to the tritium incorporation under identical conditions in the control groups of rats.

CC(C)(CCCCCCCCCCC(C)(C)CC(=O)O)CC(=O)O [Example 4, 3,3,14,14-Tetramethyl-hexadecane-1,16-dioic acid]
LD50 (LD50 in rats (p.o.)): > 7000 mg/kg | Serum cholesterol (serum lipids [1]; non-treated 65 ± 7): 46 ± 7 mg % | Serum triglycerides (serum lipids [1]; non-treated 205 ± 29): 62 ± 15 mg % | Oxidation of glucose, palmitate or acetate to CO2 in vivo [2]: does not affect | Reduction in liver triglyceride content (FIG. 4) (liver triglyceride): reduction in liver triglyceride content | Decrease in the triglyceride content of the liver (liver triglyceride; summary, rats): 30-50% | Serum insulin levels during the treatment period (serum insulin): lower than 40 uu/ml | Serum triglycerides (serum lipids [3]; Table III, 0.06% of diet, ad libitum 3 or 5 days, n = 5, non-treated 41 ± 6): 15 ± 4 mg % | Serum cholesterol (serum lipids [3]; Table III, 0.06% of diet, ad libitum 3 or 5 days, n = 5, non-treated 64 + 10): 38 ± 5 mg % | Serum triglycerides (serum lipids [3]; Table III, 0.15% of diet, ad libitum 3 or 5 days, n = 5, non-treated 41 ± 6): 21 ± 4 mg % | Serum cholesterol (serum lipids [3]; Table III, 0.15% of diet, ad libitum 3 or 5 days, n = 5, non-treated 64 + 10): 32 ± 5 mg % | Serum triglycerides (serum lipids [3]; Table III, 0.25% of diet, ad libitum 3 or 5 days, n = 5, non-treated 41 ± 6): 15 ± 4 mg % | Serum cholesterol (serum lipids [3]; Table III, 0.25% of diet, ad libitum 3 or 5 days, n = 5, non-treated 64 + 10): 31 ±3 mg % | Decrease in serum cholesterol (serum lipids [3]; summary, rats): 50% | Decrease in serum glycerides (serum lipids [3]; summary, rats): up to 60% | Effect on GT of non-diabetic Psamomys [4]: affects neither | Correction of the GTT curve (glucose tolerance; 0.1% in diet, 30-70 days): correction of the GTT curve in 5 or 6 test animals | Sum of glucose values at 0, 1, 2, 3h, Treatment (glucose tolerance; Psamomys I, pretreatment 779, 1082): 364 | Sum of glucose values at 0, 1, 2, 3h, Treatment (glucose tolerance; Psamomys II, pretreatment 947, 980, 958): 442 | Sum of glucose values at 0, 1, 2, 3h, Treatment (glucose tolerance; Psamomys III, pretreatment 790): 296 and 329 and 326 | Sum of glucose values at 0, 1, 2, 3h, Elimination of Treatment (glucose tolerance; Psamomys III): 849 | Sum of glucose values at 0, 1, 2, 3h, Treatment (glucose tolerance; Psamomys IV, pretreatment 992): 358 and 336 and 465 | Sum of glucose values at 0, 1, 2, 3h, Elimination of Treatment (glucose tolerance; Psamomys IV): 1049 | Sum of glucose values at 0, 1, 2, 3h, Treatment (glucose tolerance; Psamomys V, pretreatment 867): 434 and 257 and 388 | Sum of glucose values at 0, 1, 2, 3h, Elimination of Treatment (glucose tolerance; Psamomys V): 470 | Sum of glucose values at 0, 1, 2, 3h, Treatment (glucose tolerance; Psamomys VI, pretreatment 717): 555 | Diabetic trait after termination of the treatment (glucose tolerance; after termination of the treatment): revert to their original diabetic trait | Effect on diabetes induced by steptozocin [5]: affects neither | Change in the serum lipoprotein profile (serum lipoprotein; summary, rats): significant change in the serum lipoprotein profile | Weight gain (gr) average ([6]; old animals, initial 254 ± 52, non-treated gain 11 ± 13): -26 ± 8 gr | Weight gain (gr) average ([6]; young animals, n = 7, initial 92 ± 19, non-treated gain 57 ± 33): 36 ± 12 gr | Weight gain (gr) ([6]; young animals, individual values, non-treated 38, 38, 40, 55, 116): 25 gr and 29 gr and 31 gr and 32 gr and 33 gr and 38 gr and 62 gr | Siblings' weight grain (gr) ([6]; young animals, siblings a, non-treated sibling 55): 25 gr and 33 gr | Siblings' weight grain (gr) ([6]; young animals, siblings b, non-treated sibling 116): 31 gr and 38 gr | 3H2O incorporation into liver cholesterol ([7]; Table I, 3 days, single daily meal, 0.25% in high carbohydrate diet, non-treated 2.7 ± 1.1): 0.8 ± 0.2 μmole/gr liver | 3H2O incorporation into liver triglyceride ([7]; Table I, 3 days, single daily meal, 0.25% in high carbohydrate diet, non-treated 107 ± 21): 19 ± 2 μmole/gr liver | 3H2O incorporation into liver total lipid ([7]; Table I, 3 days, single daily meal, 0.25% in high carbohydrate diet, non-treated 157 ± 34): 47 ± 5 μmole/gr liver | 3H2O incorporation into liver cholesterol ([7]; Table II, 5 days, procedure of Experiment I(b), non-treated 2.8 ± 0.8): 1.4 ± 0.4 μmole/gr liver | 3H2O incorporation into liver triglyceride ([7]; Table II, 5 days, procedure of Experiment I(b), non-treated 71 ± 12): 20 ± 7 μmole/gr liver | 3H2O incorporation into liver total lipid ([7]; Table II, 5 days, procedure of Experiment I(b), non-treated 107 ± 18): 53 ± 13 μmole/gr liver | Inhibition of in vivo incorporation of 3H2O into cholesterol in liver ([8]; 100 mg/Kg body wt/day): 50% | Inhibition of in vivo incorporation of 3H2O into neutral fat (diglycerides, triglycerides) in liver ([8]; 100 mg/Kg body wt/day): 50% | Inhibition of in vivo incorporation of 3H2O into cholesterol in liver ([8]; 250 mg/Kg body wt/day): 80% | Inhibition of in vivo incorporation of 3H2O into neutral fat (diglycerides, triglycerides) in liver ([8]; 250 mg/Kg body wt/day): 80% | In vivo incorporation of 3H2O into neutral fat in adipose tissue ([8]; adipose tissue): block

CC(C)(CCCCCCCCCCCCC(C)(C)CC(=O)O)CC(=O)O [Example 5, 3,3,16,16-Tetramethyl-octadecane-1,18-dioic acid]
Reduction in liver triglyceride content (FIG. 4) (liver triglyceride): reduction in liver triglyceride content | Serum triglycerides (serum lipids [3]; Table IV, 0.25% of diet, 3 days ad libitum, n = 9, non-treated 48 ± 6): 33 ± 3 mg % | Serum cholesterol (serum lipids [3]; Table IV, 0.25% of diet, 3 days ad libitum, n = 12, non-treated 80 ± 12): 40 ± 11 mg % | HDL (VLDL + LDL) (serum lipoprotein; Table V, 0.25% of diet, 3 days, non-treated 1.05): 1.50 | LDL cholesterol (serum lipoprotein; Table V, 0.25% of diet, 3 days, non-treated 19.00): 6.00 mg % | VLDL cholesterol (serum lipoprotein; Table V, 0.25% of diet, 3 days, non-treated 23.00): 10.00 mg % | HDL cholesterol (serum lipoprotein; Table V, 0.25% of diet, 3 days, non-treated 43.00): 24.00 mg %

CC(C)(CCCCCCCCCCC(C)(C)C(Br)C(=O)O)C(Br)C(=O)O (centres unmarked) [Example 9, 2,15-Dibromo-3,3,14,14-tetramethyl-hexadecane-1,16-dioic acid]
Reduction in liver triglyceride content (FIG. 4) (liver triglyceride): reduction in liver triglyceride content
